Results as given in US20260256728A1, “TREATMENT FOR ASYMPTOMATIC STARGARDT DISEASE PATIENTS” (priority 2024, published 2026).
“Also recorded” adds a separate entry of the source.

Assays:
[1] = TEASE-1 plasma gildeuretinol (replacement of plasma vitamin A); format: in vivo, human; conditions: for percentage of gildeuretinol over total vitamin A (as retinol+gildeuretinol): plasma, 8-week pharmacokinetic analysis
Method: The Tolerability and Effects of gildeuretinol acetate in Stargardt Disease (Clinical trial group 1, also known as TEASE-1) was a 24-month, multicenter, double-masked, placebo-controlled trial designed to evaluate the efficacy and safety of daily oral gildeuretinol acetate in slowing the growth of atrophic retinal lesions in Stargardt disease patients. The trial was conducted at multiple sites in the United States (NCT02402660).
Patients 12 years or older, clinically diagnosed with Stargardt disease, with at least one ABCA4 mutation, at least one eye presenting with well-demarcated areas of reduced fundus autofluorescence including retinal atrophic lesions, and with any visual acuity, were enrolled.
Patients were randomized to gildeuretinol acetate 14 mg capsules, gildeuretinol acetate 24 mg capsules, or placebo capsules, to be taken once daily for one year. After one year, 50% of randomly selected patients receiving placebo were crossed over in a 1:1 ratio to gildeuretinol acetate 14 mg capsules or gildeuretinol acetate 24 mg capsules for a second year.
Gildeuretinol acetate and placebo capsules were identical appearing capsules. Patients were advised to avoid vitamin A-containing supplements and liver-based products. Fruits and vegetables could be consumed without limitation. Trial visits occurred at 8 weeks and 6, 12, 18, and 24 months following screening and randomization.

[2] = tested on: asymptomatic Stargardt disease patients; assay: TEASE-3 best-corrected visual acuity (BCVA); format: in vivo, human
Method: The tolerability and effects of ALK-001 (gildeuretinol acetate) in Stargardt Disease (Clinical trial group 3, also known as TEASE-3) study was an open-label, multicenter, case control study designed to evaluate the efficacy and safety of gildeuretinol acetate on the progression of Stargardt disease in asymptomatic individuals. The trial was conducted at multiple sites in the United States.
To assess the safety and efficacy of gildeuretinol acetate in preventing vision loss in asymptomatic individuals, gildeuretinol acetate 14 mg capsules were administered to individuals showing early signs of retinal damage while maintaining approximately 20/20 vision and no subjective loss of vision. […] Based on the above family history and clinical observations, the asymptomatic individuals were likely to develop retinal lesions, loss of photoreceptors, drops in retinal sensitivity, loss of visual acuity, indicating the onset of symptoms, i.e. a progression to the symptomatic phase, including vision loss within two years, mirroring the progression observed in their older siblings.
Testing asymptomatic individuals in the absence of a potential intervention is, therefore, controversial. All asymptomatic Stargardt disease patients were thus administered gildeuretinol acetate. Specific dose levels were not disclosed to the patients. Disease progression was compared to the symptomatic siblings with identical genetic mutations when aged-matched who had not received gildeuretinol acetate.
Patients received gildeuretinol acetate 14 mg capsules, to be taken orally once daily. Trial visits occurred every 6 months approximately following screening and treatment start visits.
Disease progression was monitored by best-corrected visual acuity (BCVA) reported in number of Early Treatment Diabetic Retinopathy Study (ETDRS) letters, fundus autofluorescence (FAF) imaging, loss of photoreceptors (as measured by the ellipsoid zone band loss) by optical coherence tomography (OCT) and retinal sensitivity by microperimetry.
Measurements from the left and right eye for each patient were averaged for each visit to produce a single statistical unit for both eyes. For segmented linear regressions, knot times were selected so that three visits were included in the first segment.

[3] = in vivo

## [2H]C([2H])([2H])C(/C=C/C=C(C)/C=C/C1=C(C)CCCC1(C)C)=C\COC(C)=O [gildeuretinol acetate]
[1]; 14 or 24 mg daily, 24 months
  replacement of plasma vitamin A sustained throughout the treatment period: greater than 80%
[1]; after six months
  patients in whom over 80% of plasma vitamin A was replaced: 39 out of 40
[1]; daily doses approximately 14 to 24 mg, within a matter of weeks
  serum vitamin A replaced with gildeuretinol: more than 80%
[1]; in vivo
  total plasma vitamin A and retinoic acid (combined vitamin A and gildeuretinol-derived forms) versus placebo group: the same
[1]; 14 mg cohort
  percentage of gildeuretinol over total vitamin A (as retinol+gildeuretinol): 87%
[1]; 24 mg cohort
  percentage of gildeuretinol over total vitamin A (as retinol+gildeuretinol): 92%
[2]; asymptomatic Stargardt disease patients, 14 mg daily, up to four years
  effect on vision loss: effectively prevented vision loss and further retinal damage; also recorded: completely prevented vision loss; also recorded: arrested loss of vision and retinal pathology
[2]; in vivo
  average BCVA improvement versus untreated siblings, lines of vision on the ETDRS eyechart: four
[2]; treated asymptomatic patients
  visual acuity (Snellen): ~ 20/20 and approximately 20/20
[2]; treated siblings, 14 mg daily, 2-4 years
  BCVA: 88±4 ETDRS letters
[2]; untreated siblings 66±10 ETDRS letters
  average BCVA improvement versus untreated age-matched siblings: 22±13 letters
[3]
  Patients experiencing event (%): Ear infection: 1 (10.0)
  Patients experiencing event (%): Gastroenteritis viral: 0
  Patients experiencing event (%): Herpes zoster: 0
  Patients experiencing event (%): Skin infection: 0
  Patients experiencing event (%): Upper respiratory tract infection: 2 (20.0)
  changes in visual acuity: No changes in visual acuity were observed
  discontinuation of treatment due to side effects: no patient discontinued treatment due to side effects
  serious adverse events associated with treatment: No serious adverse events
  severity of adverse events: mild or moderate
